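Tested at 5 concentrations; 48 h exposure; 96-well plates; endpoints linearly interpolated, else capped at highest concentration. GI50 = concentration required for 50% inhibition of growth. TGI: concentration producing complete growth inhibition.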
Columns and labels:
Test in all cases: NCI tumour cell line growth inhibition, 48 h
MOLT-4 leukemia = test system: MOLT-4 leukemia
M14 melanoma = test system: M14 melanoma
KM12 colon = test system: KM12 colon
A498 renal = test system: A498 renal
SW-620 colon = test system: SW-620 colon
K-562 leukemia = test system: K-562 leukemia
U251 CNS = test system: U251 CNS
SK-MEL-5 melanoma = test system: SK-MEL-5 melanoma
OVCAR-8 ovarian = test system: OVCAR-8 ovarian
NCI-H460 lung = test system: NCI-H460 lung
SK-OV-3 ovarian = test system: SK-OV-3 ovarian

## CCCCCCCCCCCCCCCC(=O)OCC1CCCN2CCCCC12 (stereo unspecified)
MOLT-4 leukemia
  TGI: > 100 µM
M14 melanoma
  TGI: > 100 µM
KM12 colon
  TGI: > 100 µM
A498 renal
  TGI: > 100 µM
SW-620 colon
  TGI: > 100 µM
K-562 leukemia
  TGI: > 100 µM
U251 CNS
  TGI: > 100 µM
SK-MEL-5 melanoma
  TGI: > 100 µM
OVCAR-8 ovarian
  TGI: > 100 µM
NCI-H460 lung
  TGI: > 100 µM
SK-OV-3 ovarian
  TGI: > 100 µM

## CC[C@H](Nc1nc(N)nc(C)c1C#N)c1nc2cccc(NCc3ccc(C(=O)NO)cc3)c2c(=O)n1-c1ccccc1
MOLT-4 leukemia
  GI50: 2.34 µM
  TGI: > 100 µM
KM12 colon
  GI50: 1.7 µM
  TGI: 3.29 µM
A498 renal
  GI50: 1.04 µM
  TGI: 2.42 µM
SW-620 colon
  GI50: 1.7 µM
  TGI: 3.92 µM
K-562 leukemia
  GI50: 2.44 µM
  TGI: > 100 µM
OVCAR-8 ovarian
  GI50: 2.19 µM
  TGI: 6.83 µM
NCI-H460 lung
  GI50: 1.85 µM
  TGI: 4.76 µM
SK-OV-3 ovarian
  GI50: 2.05 µM
  TGI: 5.03 µM

## CCOC(=O)Nc1cc2c(c(N)n1)N=C(c1ccccc1)[C@H](C)N2
MOLT-4 leukemia
  TGI: 14.5 µM
M14 melanoma
  TGI: 13.8 µM
A498 renal
  GI50: < 0.0001 µM
SW-620 colon
  TGI: > 100 µM
U251 CNS
  GI50: < 0.0001 µM
OVCAR-8 ovarian
  TGI: > 100 µM
NCI-H460 lung
  TGI: 0.0464 µM
SK-OV-3 ovarian
  GI50: < 0.0001 µM
  TGI: 78.8 µM

## O=C(N/C(=C\c1cccc([N+](=O)[O-])c1)c1nc2[nH]c(=S)[nH]c(=O)c2[nH]1)c1ccccc1
MOLT-4 leukemia
  TGI: > 100 µM
M14 melanoma
  TGI: > 100 µM
KM12 colon
  TGI: > 100 µM
A498 renal
  TGI: > 100 µM
SW-620 colon
  TGI: > 100 µM
K-562 leukemia
  TGI: > 100 µM
U251 CNS
  TGI: > 100 µM
SK-MEL-5 melanoma
  TGI: > 100 µM
OVCAR-8 ovarian
  TGI: > 100 µM
NCI-H460 lung
  TGI: > 100 µM
SK-OV-3 ovarian
  TGI: > 100 µM

## C/C(=N\Oc1cc(Cl)ncn1)c1ccccn1
MOLT-4 leukemia
  TGI: > 100 µM
M14 melanoma
  TGI: > 100 µM
KM12 colon
  TGI: > 100 µM
SW-620 colon
  TGI: > 100 µM
K-562 leukemia
  TGI: > 100 µM
U251 CNS
  TGI: > 100 µM
SK-MEL-5 melanoma
  TGI: > 100 µM
OVCAR-8 ovarian
  TGI: > 100 µM
NCI-H460 lung
  TGI: 67.9 µM
SK-OV-3 ovarian
  TGI: > 100 µM

## NC(=S)Nc1cc(Cl)ccc1Cl
MOLT-4 leukemia
  TGI: > 100 µM
M14 melanoma
  TGI: > 100 µM
KM12 colon
  TGI: > 100 µM
A498 renal
  TGI: > 100 µM
SW-620 colon
  TGI: > 100 µM
K-562 leukemia
  TGI: > 100 µM
U251 CNS
  TGI: > 100 µM
SK-MEL-5 melanoma
  TGI: > 100 µM
OVCAR-8 ovarian
  TGI: > 100 µM
NCI-H460 lung
  TGI: > 100 µM
SK-OV-3 ovarian
  TGI: > 100 µM

## CC(=O)OC/C=C/Cn1ncc(=O)[nH]c1=O
MOLT-4 leukemia
  TGI: > 100 µM
M14 melanoma
  TGI: > 100 µM
KM12 colon
  TGI: > 100 µM
A498 renal
  TGI: > 100 µM
SW-620 colon
  TGI: > 100 µM
K-562 leukemia
  TGI: > 100 µM
U251 CNS
  TGI: > 100 µM
SK-MEL-5 melanoma
  TGI: > 100 µM
OVCAR-8 ovarian
  TGI: > 100 µM
NCI-H460 lung
  TGI: > 100 µM

## CC(C)OC(=O)C1=C(O)c2ccccc2S(=O)(=O)N1
MOLT-4 leukemia
  TGI: > 100 µM
M14 melanoma
  TGI: > 100 µM
KM12 colon
  TGI: > 100 µM
A498 renal
  TGI: > 100 µM
SW-620 colon
  TGI: > 100 µM
K-562 leukemia
  TGI: > 100 µM
U251 CNS
  TGI: > 100 µM
SK-MEL-5 melanoma
  TGI: > 100 µM
OVCAR-8 ovarian
  TGI: > 100 µM
NCI-H460 lung
  TGI: > 100 µM
SK-OV-3 ovarian
  TGI: > 100 µM

## O=C(CCl)NC(Cc1ccc(F)cc1)C(=O)O (stereo unspecified)
MOLT-4 leukemia
  TGI: > 100 µM
KM12 colon
  TGI: > 100 µM
A498 renal
  TGI: > 100 µM
SW-620 colon
  TGI: > 100 µM
K-562 leukemia
  TGI: > 100 µM
U251 CNS
  TGI: > 100 µM
SK-MEL-5 melanoma
  TGI: > 100 µM
OVCAR-8 ovarian
  TGI: > 100 µM
NCI-H460 lung
  TGI: > 100 µM
SK-OV-3 ovarian
  TGI: > 100 µM

## CCOC(=O)[C@H]1Nc2c(cccc2[N+](=O)[O-])[C@H]2OCC[C@@H]12
MOLT-4 leukemia
  TGI: > 100 µM
M14 melanoma
  TGI: > 100 µM
KM12 colon
  TGI: > 100 µM
SW-620 colon
  TGI: > 100 µM
K-562 leukemia
  TGI: > 100 µM
U251 CNS
  TGI: > 100 µM
SK-MEL-5 melanoma
  TGI: > 100 µM
OVCAR-8 ovarian
  TGI: > 100 µM
NCI-H460 lung
  TGI: > 100 µM

## Cc1ccc(C[P+]2(c3ccccc3)CCCCC2)cc1
MOLT-4 leukemia
  TGI: > 100 µM
M14 melanoma
  TGI: > 100 µM
KM12 colon
  TGI: > 100 µM
A498 renal
  TGI: > 100 µM
SW-620 colon
  TGI: > 100 µM
K-562 leukemia
  TGI: > 100 µM
U251 CNS
  TGI: 42.4 µM
SK-MEL-5 melanoma
  TGI: 24.4 µM
OVCAR-8 ovarian
  TGI: > 100 µM
NCI-H460 lung
  TGI: > 100 µM
SK-OV-3 ovarian
  TGI: > 100 µM

## Cc1ccc(S(=O)(=O)N/N=c2\c(C)c(C3=NS(=O)(=O)c4cc(S(N)(=O)=O)c(Cl)cc4N3)oc3c(Cl)cc(Cl)cc23)cc1
MOLT-4 leukemia
  TGI: > 100 µM
M14 melanoma
  TGI: > 100 µM
KM12 colon
  TGI: > 100 µM
A498 renal
  TGI: > 100 µM
SW-620 colon
  TGI: 22.9 µM
K-562 leukemia
  TGI: > 100 µM
U251 CNS
  TGI: 67.9 µM
SK-MEL-5 melanoma
  TGI: > 100 µM
OVCAR-8 ovarian
  TGI: > 100 µM
NCI-H460 lung
  TGI: > 100 µM
SK-OV-3 ovarian
  TGI: > 100 µM

## COc1cc(N/N=C/C#N)cc(OC)c1OC
MOLT-4 leukemia
  TGI: > 10 µM
M14 melanoma
  TGI: > 10 µM
KM12 colon
  TGI: > 10 µM
A498 renal
  TGI: > 10 µM
SW-620 colon
  TGI: > 10 µM
K-562 leukemia
  TGI: > 10 µM
U251 CNS
  TGI: > 10 µM
SK-MEL-5 melanoma
  TGI: > 10 µM
OVCAR-8 ovarian
  TGI: > 10 µM
NCI-H460 lung
  TGI: > 10 µM
SK-OV-3 ovarian
  TGI: > 10 µM

## O=C1Nc2ccccc2S/C1=C\c1ccccc1C(F)(F)F
MOLT-4 leukemia
  TGI: > 100 µM
M14 melanoma
  TGI: > 100 µM
KM12 colon
  TGI: > 100 µM
SW-620 colon
  TGI: > 100 µM
U251 CNS
  TGI: > 100 µM
SK-MEL-5 melanoma
  TGI: > 100 µM
OVCAR-8 ovarian
  TGI: > 100 µM
NCI-H460 lung
  TGI: > 100 µM
SK-OV-3 ovarian
  TGI: > 100 µM

## CC1CCC(O)(C(C)(C(=O)O)c2ccccc2)CC1 (stereo unspecified)
MOLT-4 leukemia
  TGI: > 100 µM
M14 melanoma
  TGI: > 100 µM
KM12 colon
  TGI: > 100 µM
A498 renal
  TGI: > 100 µM
SW-620 colon
  TGI: > 100 µM
K-562 leukemia
  TGI: > 100 µM
U251 CNS
  TGI: > 100 µM
SK-MEL-5 melanoma
  TGI: > 100 µM
OVCAR-8 ovarian
  TGI: > 100 µM
NCI-H460 lung
  TGI: > 100 µM

## Nc1nncc2c1ccn2C1OC(CO)C(O)C1O (stereo unspecified)
MOLT-4 leukemia
  TGI: > 100 µM
M14 melanoma
  TGI: > 100 µM
KM12 colon
  TGI: > 100 µM
A498 renal
  TGI: > 100 µM
SW-620 colon
  TGI: > 100 µM
K-562 leukemia
  TGI: > 100 µM
U251 CNS
  TGI: > 100 µM
SK-MEL-5 melanoma
  TGI: > 100 µM
OVCAR-8 ovarian
  TGI: > 100 µM
NCI-H460 lung
  TGI: > 100 µM
SK-OV-3 ovarian
  TGI: > 100 µM

## O=C(O)NCc1ccccc1 (tested in a mixture with another compound)
MOLT-4 leukemia
  TGI: 45.9 µM
M14 melanoma
  TGI: 99.3 µM
KM12 colon
  TGI: > 80.4 µM
A498 renal
  TGI: 85.3 µM
SW-620 colon
  TGI: > 100 µM
K-562 leukemia
  TGI: > 77 µM
U251 CNS
  TGI: > 77.6 µM
SK-MEL-5 melanoma
  TGI: 33.4 µM
OVCAR-8 ovarian
  TGI: > 100 µM
NCI-H460 lung
  TGI: > 87.1 µM
SK-OV-3 ovarian
  TGI: > 100 µM

## C=C1CC[C@@H](Br)C(C)(C)[C@]12CCC(C)(O)C(Cl)C2 (stereo partly specified)
MOLT-4 leukemia
  TGI: 38.3 µM
KM12 colon
  TGI: 33.8 µM
A498 renal
  TGI: 44.7 µM
SW-620 colon
  TGI: 27.2 µM
K-562 leukemia
  TGI: 49.4 µM
U251 CNS
  TGI: 29.7 µM
SK-MEL-5 melanoma
  TGI: 35.7 µM
OVCAR-8 ovarian
  TGI: 37 µM
NCI-H460 lung
  TGI: 32.1 µM
SK-OV-3 ovarian
  TGI: 37.4 µM

## Cc1cc2c(cc1C)[n+](=O)c(C#N)c(Cl)n2[O-]
MOLT-4 leukemia
  TGI: 48.5 µM
A498 renal
  TGI: 39.5 µM
SW-620 colon
  TGI: 41.6 µM
K-562 leukemia
  TGI: > 100 µM
U251 CNS
  TGI: 70.9 µM
SK-MEL-5 melanoma
  TGI: 29 µM
OVCAR-8 ovarian
  TGI: 53.2 µM
NCI-H460 lung
  TGI: 24.2 µM
SK-OV-3 ovarian
  TGI: 70.5 µM

## CCC1CN2CCC1CC2 (stereo unspecified)
MOLT-4 leukemia
  TGI: > 100 µM
KM12 colon
  TGI: > 100 µM
A498 renal
  TGI: > 100 µM
SW-620 colon
  TGI: > 100 µM
K-562 leukemia
  TGI: > 100 µM
U251 CNS
  TGI: > 100 µM
SK-MEL-5 melanoma
  TGI: > 100 µM
OVCAR-8 ovarian
  TGI: > 100 µM
NCI-H460 lung
  TGI: > 100 µM
SK-OV-3 ovarian
  TGI: > 100 µM

## CC(=O)O[C@H]1CC[C@@]2(C)C(=CC[C@@H]3[C@@H]2CC[C@]2(C)Nc4c(cnn4S(C)(=O)=O)C[C@@H]32)C1
MOLT-4 leukemia
  TGI: 47.4 µM
M14 melanoma
  TGI: 75.2 µM
KM12 colon
  TGI: > 100 µM
A498 renal
  TGI: > 100 µM
K-562 leukemia
  TGI: > 100 µM
U251 CNS
  TGI: > 100 µM
SK-MEL-5 melanoma
  TGI: 30.6 µM
OVCAR-8 ovarian
  TGI: > 100 µM
NCI-H460 lung
  TGI: > 100 µM
SK-OV-3 ovarian
  TGI: > 100 µM
